Measurements taken from US10227331B2 (priority 2015, dated 2019).

Experiments:
VIM-1 = VIM-1 (Pseudomonas aeruginosa (strain ATCC 15692 / DSM 22644 / CIP 104116 / JCM 14847 / LMG 12228 / 1C / PRS 101 / PAO1), UniProt A0A0F7KYQ8); assay: biochemical; conditions: CCF2-FA substrate, 2 hours at 25° C
In short: (§1)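 Class B activity is measured in the presence of compound by fluorescence with CCF2-FA after a 2-hour incubation at 25° C. IC50 is taken from a 4-parameter fit of semi-logarithmic dose-response data.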

NDM-1 = NDM-1 (Klebsiella pneumoniae, UniProt C7C422); assay: biochemical; format: biochemical; conditions: CCF2-FA substrate, 2 hours at 25° C; read-out: NDM-1 IC50
NDM-1, sequence (C7C422 whole entry, looked up, species assumed): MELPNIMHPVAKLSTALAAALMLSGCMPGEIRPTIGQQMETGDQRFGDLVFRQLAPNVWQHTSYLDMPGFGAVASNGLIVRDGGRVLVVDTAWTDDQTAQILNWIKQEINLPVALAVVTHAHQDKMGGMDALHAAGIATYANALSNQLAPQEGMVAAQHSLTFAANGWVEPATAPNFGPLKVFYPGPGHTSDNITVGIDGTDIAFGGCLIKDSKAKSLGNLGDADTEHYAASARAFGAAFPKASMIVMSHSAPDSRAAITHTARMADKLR
In short: as §1

IMP-1 = IMP-1 (Serratia marcescens, UniProt P52699); assay: biochemical; format: biochemical; conditions: CCF2-FA substrate, 2 hours at 25° C; read-out: IMP-1 IC50
IMP-1, sequence (P52699 whole entry, looked up, species assumed): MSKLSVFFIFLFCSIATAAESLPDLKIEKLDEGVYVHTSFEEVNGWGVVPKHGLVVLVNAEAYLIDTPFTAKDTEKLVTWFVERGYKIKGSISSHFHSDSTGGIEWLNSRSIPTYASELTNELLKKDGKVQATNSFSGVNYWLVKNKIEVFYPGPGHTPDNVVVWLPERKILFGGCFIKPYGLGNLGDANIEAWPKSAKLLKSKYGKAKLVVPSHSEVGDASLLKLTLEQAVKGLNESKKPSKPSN
In short: as §1

[1] = test system: P. aeruginosa expressing IMP-1, efflux− (MB9799); assay: Efflux: concentration of MBL inhibitor which restores susceptibility to imipenem; format: cell-based, Pseudomonas aeruginosa; conditions: imipenem at 2 μg/mL, in the presence of a class A, C, D serine β-lactamase inhibitor closely related to relebactam
Source text: (§2) The strain background is Pseudomonas aeruginosa PAO1.

[2] = test system: P. aeruginosa expressing IMP-1, efflux+ (MB9798); format: cell-based, Pseudomonas aeruginosa; conditions: for P. aeruginosa expressing IMP-1, efflux+ (MB9798) MITC95: imipenem at 2 μg/mL, in the presence of a class A, C, D serine β-lactamase inhibitor closely related to relebactam; for Efflux ratio: ratio MITC95 PA_9798/MITC95 PA_9799
Source text: as §2

[3] = test system: Serratia marcescens expressing IMP-1 (CL5741); format: cell-based; conditions: with imipenem 1 μg/ml, 95% inhibition of bacterial growth; for Serratia marcescens MITC95: IMP-1 (CL5741)
In short: (§3)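 Clinical strains grown overnight on blood agar, then diluted 1:100 in 1.1× CAMHB and exposed to test compound with imipenem at 1 μg/ml. Incubation was 22–24 h at 35° C; growth was read by absorbance to find the compound concentration restoring imipenem susceptibility.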

[4] = test system: Klebsiella pneumoniae expressing VIM-1 (IHMA599644); format: cell-based; conditions: with imipenem 1 μg/ml, 95% inhibition of bacterial growth; for Klebsiella pneumoniae MITC95: VIM-1 (IHMA599644)
In short: as §3

[5] = test system: Escherichia coli expressing NDM-1 (CLB30005, CLB30016); format: cell-based; conditions: with imipenem 1 μg/ml, 95% inhibition of bacterial growth; for Escherichia coli MITC95: NDM-1 (CLB30016)
In short: as §3

SMILES	IC50 (VIM-1) [nM]	IC50 (NDM-1) [nM]	IC50 (IMP-1) [nM]	P. aeruginosa expressing IMP-1, efflux− (MB9799) MITC95 [1] [µM]	P. aeruginosa expressing IMP-1, efflux+ (MB9798) MITC95 [2] [µM]	Efflux ratio [2]	Serratia marcescens expressing IMP-1 (CL5741) MITC95 [3] [µM]	Klebsiella pneumoniae expressing VIM-1 (IHMA599644) MITC95 [4] [µM]	Escherichia coli expressing NDM-1 (CLB30016) MITC95 [5] [µM]	Serratia marcescens MITC95 [3] [µM]	Klebsiella pneumoniae MITC95 [4] [µM]	Escherichia coli MITC95 [5] [µM]
COc1ccc(Cc2cc3c(-c4ccc(S(=O)(=O)C5CNC5)c(S(N)(=O)=O)c4-c4nnn[nH]4)cccc3[nH]2)cc1 [Example 231, 6-(azetidin-3-ylsulfonyl)-3-(2-(4-methoxybenzyl)-1H-indol-4-yl)-2-(1H-tetrazol-5-yl)benzenesulfonamide]	0.558	0.102	0.717	3.125	25	8.00	6.25	12.5	6.25			
NCc1nc2c(-c3ccc(S(=O)(=O)C[C@H](O)CN)c(S(N)(=O)=O)c3-c3nn[nH]n3)cccc2[nH]1 [Example 370, (R)-6-((3-amino-2-hydroxypropyl)sulfonyl)-3-(2-(aminomethyl)-1H-benzo[d]imidazol-4-yl)-2-(2H-tetrazol-5-yl) benzenesulfonamide]	0.393	0.361	1.25	0.7813	0.7813	1.00				0.7813	1.563	0.7813
CCOC(=O)Nc1nc2c(-c3ccc(S(=O)(=O)CCN)c(S(N)(=O)=O)c3-c3nn[nH]n3)cccc2s1 [Example 84, ethyl 4-(4-(2-aminoethylsulfonyl)-3-sulfamoyl-2-(2H-tetrazol-5-yl)phenyl)benzo[d]thiazol-2-ylcarbamate]	0.14	0.0781	0.145	1.563	6.25	4.00	1.563	3.125	1.563			
Nc1nc2cccc(-c3ccc(S(=O)(=O)C4CCN(CCO)CC4)c(S(N)(=O)=O)c3-c3nn[nH]n3)c2[nH]1 [Example 47, 3-(2-amino-3H-benzo[d]imidazol-4-yl)-6-(1-(2-hydroxyethyl)piperidin-4-ylsulfonyl)-2-(2H-tetrazol-5-yl)benzenesulfonamide]	0.361	0.214	0.846	1.563	6.25	4.00	3.125	3.125	1.563			
NC[C@H](O)CS(=O)(=O)c1ccc(-c2cccc3[nH]cnc23)c(-c2nn[nH]n2)c1S(N)(=O)=O [Example 353, (S)-6-((3-amino-2-hydroxypropyl)sulfonyl)-3-(1H-benzo[d]imidazol-4-yl)-2-(2H-tetrazol-5-yl) benzenesulfonamide]	0.202	0.185	0.392	0.7813	0.7813	1.00				1.563	3.125	1.563
CCn1c(N)nc2c(-c3ccc(S(=O)(=O)CCN)c(S(N)(=O)=O)c3-c3nn[nH]n3)cccc21 [Example 284, 3-(2-amino-1-ethyl-1H-benzo[d]imidazol-4-yl)-6-(2-aminoethylsulfonyl)-2-(2H-tetrazol-5-yl)benzenesulfonamide]	0.507	0.289	0.327	0.7813	3.125	4.00				1.563	1.563	0.3906
CC(=O)N1CC(S(=O)(=O)c2ccc(-c3cccc4nc(N)[nH]c34)c(-c3nn[nH]n3)c2S(N)(=O)=O)C1 [Example 54, 6-(1-acetylazetidin-3-ylsulfonyl)-3-(2-amino-3H-benzo[d]imidazol-4-yl)-2-(2H-tetrazol-5-yl)benzenesulfonamide]	0.435	0.178	2.38	3.125	50	16.00	6.25	12.5	6.25			
C[C@@H](N)CS(=O)(=O)c1ccc(-c2cccc3c2nc(N)n3C)c(-c2nn[nH]n2)c1S(N)(=O)=O [Example 275, 3-(2-amino-1-methyl-1H-benzo[d]imidazol-4-yl)-6-((R)-2-aminopropylsulfonyl)-2-(2H-tetrazol-5-yl)benzenesulfonamide]	0.696	0.582	0.84	0.8906	2.563	2.88				0.8906	1.781	0.5
NC1CCC(c2ccc(S(=O)(=O)CC3CNC3)c(S(N)(=O)=O)c2-c2nnn[nH]2)CC1 (stereo not drawn) [Example 203, 3-(4-aminocyclohexyl)-6-((azetidin-3-ylmethyl)sulfonyl)-2-(1H-tetrazol-5-yl)benzenesulfonamide]	0.591	11.2	22.9	0.7813	3.125	4.00	1.563	1.563	3.125			
Nc1n[nH]c2cccc(-c3ccc(S(=O)(=O)C4CNC4)c(S(N)(=O)=O)c3-c3nnn[nH]3)c12 [Example 263, 3-(3-amino-1H-indazol-4-yl)-6-(azetidin-3-ylsulfonyl)-2-(1H-tetrazol-5-yl) benzenesulfonamide]	0.594	0.431	4.59	3.125	6.25	2.00				1.563	6.25	1.563
NCCS(=O)(=O)c1ccc(-c2ccc3[nH]ncc3c2)c(-c2nnn[nH]2)c1S(N)(=O)=O.O=C(O)C(F)(F)F [Example 167, 2-((4-(1H-indazol-5-yl)-2-sulfamoyl-3-(1H-tetrazol-5-yl)phenyl)sulfonyl)ethanaminium 2,2,2-trifluoroacetate]	0.343	0.882	1.07	0.7813	6.25	8.00	3.125	3.125	6.25			
